One experiment deals with T1, c-Src (Homo sapiens, UniProt P12931).
T1 construct: purchased Life Technologies
As to the kind of experiment: c-Src enzyme inhibition (Z-LYTE FRET). Format: biochemical. The settings on record: Table 2A. The method, then: The enzyme inhibitory activities of compounds disclosed herein were determined by FRET using synthetic peptides labelled with both donor and acceptor fluorophores (Z-LYTE, Life Technologies, Paisley, UK).
The relevant enzyme (1000 ng/mL, 1400 ng/mL or 2000 ng/mL respectively, 2.5 μL) was incubated with the test compound (either 40 μg/mL, 12 μg/mL, 4 μg/mL, 1.2 μg/mL, 0.4 μg/mL, 0.12 μg/mL, 0.04 μg/mL, 0.012 μg/mL, 0.004 μg/mL or 0.0012 μg/mL, 2.5 μL each) for 2 h at RT. The FRET peptides (8 μM, 2.5 μL), and appropriate ATP solutions (2.5 μL, 800 μM for c-Src, and 60 μM ATP for HCK and Syk) were then added to the enzyme/compound mixtures and incubated for 1 h at RT. Development reagent (protease, 5 μL) was added for 1 h prior to detection in a fluorescence microplate reader (EnVision, Perkin Elmer).
In all cases, the site-specific protease cleaves non-phosphorylated peptide only and eliminates the FRET signal. Phosphorylation levels of each reaction were calculated using the ratio of coumarin emission (donor) over fluorescein emission (acceptor), for which low ratios indicate high phosphorylation and high ratios indicate low phosphorylation levels.

Experiment [1] has as its system TNFα release in d-U937 cells. The experiment in a line: LPS-induced TNFα release in d-U937 cells. Also: relative to 10 µg/mL BIRB-796. Format: cell-based. The following applies: Homo sapiens, dU937; read-out: LPS Induced Release TNFα REC50 (dU937). The method, then: U937 cells, a human monocytic cell line, were differentiated into macrophage-type cells by incubation with PMA (100-200 ng/mL) for 48 to 72 h. Cells were pre-incubated with final […] concentrations of test compound for 2 h and were then stimulated with LPS (0.1 μg/mL; from E. coli: O111:B4, Sigma) for 4 h. The supernatant was collected for determination of TNFα and IL-8 concentrations by sandwich ELISA (Duo-set, R&D systems). […] The relative 50% effective concentration (REC50) was determined from the resultant concentration-response curve. The inhibition of IL-8 production was calculated at each concentration of test compound by comparison with vehicle control.

Experiment [2] deals with ICAM-1 expression in BEAS2B cells. The experiment in a line: Poly I:C-induced ICAM-1 expression in BEAS2B cells. Type of experiment: cell-based. The following applies: Homo sapiens, BEAS-2B, read-out: PolyIC/ICAM1 IC50 (BEAS2B). The method, then: Poly I:C was used in these studies as a simple, RNA virus mimic. Poly I:C-Oligofectamine mixture (2% Oligofectamine±1 μg/mL Poly I:C, 25 μL; Life Technologies and Invivogen Ltd., San Diego, Calif., respectively) was transfected into BEAS2B cells (human bronchial epithelial cells, ATCC). Cells were pre-incubated with final concentrations of test compounds for 2 h and the level of ICAM-1 expression on the cell surface was determined by cell-based ELISA. At a time point 18 h after poly I:C transfection, cells were fixed with 4% formaldehyde in PBS (100 μL) and then endogenous peroxidase was quenched by the addition of washing buffer (100 μL, 0.05% Tween in PBS: PBS-Tween) containing 0.1% sodium azide and 1% hydrogen peroxide. Cells were washed with wash-buffer (3×200 μL). After blocking the wells with 5% milk in PBS-Tween (100 μL) for 1 h, the cells were incubated with anti-human ICAM-1 antibody (50 μL; Cell Signaling Technology, Danvers, Mass.) in 1% BSA PBS overnight at 4° C.
The cells were washed with PBS-Tween (3×200 μL) and incubated with the secondary antibody (100 μL; HRP-conjugated anti-rabbit IgG, Dako Ltd., Glostrup, Denmark). The cells were then incubated with of substrate (50 μL) for 2-20 min, followed by the addition of stop solution (50 μL, 1N H2SO4). The ICAM-1 signal was detected by reading the absorbance at 450 nm against a reference wavelength of 655 nm using a spectrophotometer. The cells ware then washed with PBS-Tween (3×200 μL) and total cell numbers in each well were determined by reading absorbance at 595 nm after Crystal Violet staining (50 μL of a 2% solution in PBS) and elution by 1% SDS solution (100 μL) in PBS. The measured OD 450-655 readings were corrected for cell number by dividing with the OD595 reading in each well. The inhibition of ICAM-1 expression was calculated at each concentration of test compound by comparison with vehicle control.

The next experiment addresses T2, p38MAPKγ (MAPK12) (Homo sapiens, UniProt P53778).
T2 construct: purchased Life Technologies
T2 sequence (P53778 1-367): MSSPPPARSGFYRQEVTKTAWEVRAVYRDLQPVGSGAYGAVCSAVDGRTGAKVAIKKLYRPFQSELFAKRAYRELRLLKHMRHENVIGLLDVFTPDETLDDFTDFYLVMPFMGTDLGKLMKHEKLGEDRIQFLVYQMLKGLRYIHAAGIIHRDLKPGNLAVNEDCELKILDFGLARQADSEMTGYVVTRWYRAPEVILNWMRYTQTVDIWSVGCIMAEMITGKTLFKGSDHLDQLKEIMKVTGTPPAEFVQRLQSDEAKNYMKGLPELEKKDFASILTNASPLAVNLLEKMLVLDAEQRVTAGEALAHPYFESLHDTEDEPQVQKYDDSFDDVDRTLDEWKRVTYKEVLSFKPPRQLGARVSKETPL
The experiment in a line: p38 MAPKγ enzyme inhibition (Z-LYTE FRET). Format: biochemical. The settings on record: Table 2A; read-out: IC50 Values for Enzyme Inhibition p38 MAPKγ. The procedure, abridged:
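Z-LYTE read-out: after 1 h protease development, only non-phosphorylated peptide is cleaved, and the donor/acceptor (coumarin/fluorescein) ratio reports phosphorylation. Beforehand, enzyme and compound (stock concentrations 0.0012–40 μg/mL) were preincubated 2 h at RT, then the kinase reaction ran 1 h at RT with peptide and ATP (8 μM and 400 μM stocks).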

T1 sequence (P12931 whole entry): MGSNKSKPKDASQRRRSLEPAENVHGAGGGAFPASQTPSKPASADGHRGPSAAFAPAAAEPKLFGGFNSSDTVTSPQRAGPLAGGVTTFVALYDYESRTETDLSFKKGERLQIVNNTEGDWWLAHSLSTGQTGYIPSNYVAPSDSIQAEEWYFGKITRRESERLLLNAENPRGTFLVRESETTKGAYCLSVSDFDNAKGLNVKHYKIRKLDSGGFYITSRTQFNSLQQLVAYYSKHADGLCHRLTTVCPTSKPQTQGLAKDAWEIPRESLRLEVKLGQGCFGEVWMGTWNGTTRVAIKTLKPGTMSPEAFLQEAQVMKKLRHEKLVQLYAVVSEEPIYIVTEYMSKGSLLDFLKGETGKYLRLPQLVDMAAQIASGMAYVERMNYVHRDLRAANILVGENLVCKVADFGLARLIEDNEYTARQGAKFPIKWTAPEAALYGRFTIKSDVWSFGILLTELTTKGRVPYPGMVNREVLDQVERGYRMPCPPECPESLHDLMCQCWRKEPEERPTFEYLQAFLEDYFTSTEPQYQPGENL

Take `Cc1ccc(-n2nc(C(C)(C)C)cc2NC(=O)Nc2ccc(OCc3ccnc(Nc4cnc(C5CC5)cn4)c3)c3ccccc23)cc1` [Example 16]: the values for the IC50 (at c-Src; in experiment [2]; on p38MAPKγ (MAPK12)) were 2520 nM, > 1560 nM and > 7150 nM, respectively. In experiment [1], the EC50 came to 144 nM.
With `CNC(=O)c1cnc(Nc2cc(COc3ccc(NC(=O)Nc4cc(C(C)(C)C)nn4-c4ccc(C)cc4)c4ccccc34)ccn2)cn1` [Example 7, 5-((4-(((4-(3-(3-(tert-Butyl)-1-(p-tolyl)-1H-pyrazol-5-yl)ureido)naphthalen-1-yl)oxy)methyl)pyridin-2-yl)amino)-N-methylpyrazine-2-carboxamide], the IC50 against c-Src is 358 nM; in experiment [2], > 1520 nM; on p38MAPKγ (MAPK12), 151 nM. Further, the EC50 in experiment [1] stood at 10.7 nM.
For the compound `Cc1cc(-n2nc(C(C)(C)C)cc2NC(=O)Nc2ccc(OCc3ccnc(Nc4cnccn4)c3)c3ccccc23)cs1` (single isomer, unassigned) [Example 31], the IC50 was found to be 154 nM on c-Src, 874 nM in experiment [2] and 112 nM at p38MAPKγ (MAPK12). The EC50 in experiment [1] came out at 1 nM.
As to `Cc1ccc(-n2nc(C(C)(C)C)cc2NC(=O)Nc2ccc(OCc3ccnc(Nc4cncc(C5CC5)n4)c3)c3ccccc23)cc1` [Example 15], the IC50 against c-Src turned out to be 34 nM; in experiment [2], 15.7 nM; on p38MAPKγ (MAPK12), 160 nM. Further, the EC50 in experiment [1] worked out at 2.1 nM.
Consider `CC(C)(C)c1cc(NC(=O)Nc2ccc(OCc3ccnc(Nc4cnccn4)c3)c3ccccc23)n(-c2ccc(Cl)cc2)n1` [Example 45], for which the IC50 on c-Src was 7890 nM; in experiment [2], 1440 nM; on p38MAPKγ (MAPK12), > 16200 nM. Moreover, the EC50 in experiment [1] came to 3.5 nM.
The corresponding values for `Cc1ccc(-n2nc(C(C)(C)C)cc2NC(=O)Nc2ccc(OCc3ccnc(Nc4cnc(CN)cn4)c3)c3ccccc23)cc1` [Example 5, 1-(4-((2-((5-(Aminomethyl)pyrazin-2-yl)amino)pyridin-4-yl)methoxy)naphthalen-1-yl)-3-(3-(tert-butyl)-1-(p-tolyl)-1H-pyrazol-5-yl)urea] are < 0.48 nM, 474 nM, 16 nM and 2.8 nM.
For the compound `COCCNC(=O)c1cnc(Nc2cc(COc3ccc(NC(=O)Nc4cc(C(C)(C)C)nn4-c4ccc(C)cc4)c4ccccc34)ccn2)cn1` [Example 3], the figures for the IC50 (against c-Src; in experiment [2]; on p38MAPKγ (MAPK12)) were 144 nM, 460 nM and 222 nM, respectively. For the same compound, the EC50 in experiment [1] amounted to 5.5 nM.
In the case of `Cc1ccc(-n2nc(C(C)(C)C)cc2NC(=O)Nc2ccc(OCc3ccnc(Nc4cnc(CC(=O)N(C)C)cn4)c3)c3ccccc23)cc1` [Example 29], the values for the IC50 (on c-Src; in experiment [2]; on p38MAPKγ (MAPK12)) were 28 nM, 43 nM and 80 nM, respectively. Also, the EC50 in experiment [1] was found to be 4.2 nM.
`CC(C)(C)c1cc(NC(=O)Nc2ccc(OCc3ccnc(Nc4cncc(C5CC5)n4)c3)c3ccccc23)n(-c2ccc(O)cc2)n1` [Example 34]: the IC50 on c-Src worked out at 18 nM; in experiment [2], 41.1 nM; at p38MAPKγ (MAPK12), 274 nM. For the same compound, the EC50 in experiment [1] stood at 5.4 nM.
`Cc1cc(-n2nc(C(C)(C)C)cc2NC(=O)Nc2ccc(OCc3ccnc(Nc4cncc(C5CC5)n4)c3)c3ccccc23)cs1` [Example 27]: the values for the IC50 (against c-Src; in experiment [2]; at p38MAPKγ (MAPK12)) were 42 nM, 71.2 nM and 376 nM, respectively. For the same compound, in experiment [1], the EC50 amounted to 4.3 nM.
The corresponding values for `Cc1cccc(-n2nc(C(C)(C)C)cc2NC(=O)Nc2ccc(OCc3ccnc(Nc4cnccn4)c3)c3ccccc23)c1` [Example 40] are 85 nM, 637 nM, 79 nM and 3 nM.
The corresponding values for `Cc1ccc(-n2nc(C(C)(C)C)cc2NC(=O)Nc2ccc(OCc3ccnc(Nc4cncc(C5CCC5)n4)c3)c3ccccc23)cc1` [Example 47] are 402 nM, 151 nM, 473 nM and 5.8 nM.
For `Cc1ccc(-n2nc(C(C)(C)C)cc2NC(=O)Nc2ccc(OCc3ccnc(Nc4cnc(CO)cn4)c3)c3ccccc23)s1` [Example 26], the values for the IC50 (at c-Src; in experiment [2]; at p38MAPKγ (MAPK12)) were 56 nM, 973 nM and 74 nM, respectively. For the same compound, in experiment [1], the EC50 is 4.5 nM.
Turning to `Cc1ccc(-n2nc(C(C)(C)C)cc2NC(=O)Nc2ccc(OCc3ccnc(Nc4cncc(N(C)C)n4)c3)c3ccccc23)cc1` [Example 14], the IC50 against c-Src was determined as 29 nM; in experiment [2], 64.3 nM; at p38MAPKγ (MAPK12) it was 237 nM. In experiment [1], the EC50 is 2.9 nM.
As for `Cc1ccc(-n2nc(C(C)(C)C)cc2NC(=O)Nc2ccc(OCc3ccnc(Nc4cnc(C(=O)N(C)C)cn4)c3)c3ccccc23)cc1` [Example 9, 5-((4-(((4-(3-(3-(tert-Butyl)-1-(p-tolyl)-1H-pyrazol-5-yl)ureido)naphthalen-1-yl)oxy)methyl)pyridin-2-yl)amino)-N,N-dimethylpyrazine-2-carboxamide], the IC50 on c-Src is 2510 nM; in experiment [2], 72.5 nM; at p38MAPKγ (MAPK12), 9240 nM. Besides, in experiment [1], the EC50 was 1.3 nM.
Regarding `CCc1cnc(Nc2cc(COc3ccc(NC(=O)Nc4cc(C(C)(C)C)nn4-c4ccc(C)cc4)c4ccccc34)ccn2)cn1` [Example 37], the IC50 at c-Src came to 512 nM; in experiment [2] it was 611 nM; at p38MAPKγ (MAPK12), 569 nM. The EC50 in experiment [1] came to 14.3 nM.
The corresponding values for `COc1ccc(-n2nc(C(C)(C)C)cc2NC(=O)Nc2ccc(OCc3ccnc(Nc4cnccn4)c3)c3ccccc23)cn1` [Example 12] are 105 nM, 242 nM, 198 nM and 16.8 nM.
For `CC(C)(C)c1cc(NC(=O)Nc2ccc(OCc3ccnc(Nc4cnccn4)c3)c3ccccc23)n(-c2cccc(Cl)c2)n1` [Example 50] the same measures were 966 nM, > 1620 nM, 356 nM and 7.1 nM.
Turning to `Cc1ccc(-n2nc(C(C)(C)C)cc2NC(=O)Nc2ccc(OCc3ccnc(Nc4cnccn4)c3)c3ccccc23)cc1C(F)(F)F` [Example 52], the IC50 on c-Src is > 15000 nM; in experiment [2], > 1500 nM; on p38MAPKγ (MAPK12) it was > 15000 nM. In addition, the EC50 in experiment [1] worked out at 18.7 nM.

(Values after patent US11142515B2, “Pyrazolyl-ureas as kinase inhibitors” (RESPIVERT LIMITED, priority 2014, dated 2021).)
